In patent US12629375B2, “Compounds with anti-tumor activity against cancer cells bearing HER2 exon 21 insertions” (Board of Regents, The University of Texas System, priority 2019, dated 2026):
pIC50: −log10 of the molar value.

Key:
[1] = test system: p-HER2; assay: Western blot of p-HER2 in MCF10A HER2 G776delinsVC cells; assay type: cell-based, human; details: 10 nM, 2 hours treatment
Experimental: Western Blotting: For Western blotting, cells were washed in PBS and lysed in RIPPA lysis buffer (ThermoFisher) and protease inhibitor cocktail tablets (Roche). Protein (30-40 μg) was loaded into gels purchased from BioRad. BioRad semi-dry transfer was used and then probed with antibodies against, pHER2, HER2, pPI3K, PI3K, p-AKT, AKT, p-ERK1/2, and ERK1/2 (1:1000; Cell Signaling). Blots were probed with antibodies against vinculin or β-actin (Sigma-Aldrich) as a loading control, and exposed using ECL Western Blotting substrate (Promega).

[2] = test system: MCF10A cells expressing HER2 G776del insVC; assay: MCF10A cell viability, HER2 G776del insVC; assay type: cell-based; details: Homo sapiens, MCF-10A, 72 hours
Experimental: Cell Viability Assay and IC50 Estimation: Cell viability was determined using the Cell Titer Glo assay (Promega) as previously described (Robichaux et al., 2018). Briefly, 2000-3000 cells per well were plated in 384-well plates (Greiner Bio-One) in technical triplicate. Cells were treated with seven different concentrations of tyrosine kinase inhibitors or vehicle alone at a final volume of 40 μL per well. After 3 days, 11μL of Cell Titer Glo was added to each well. Plates were shaken for 15 minutes, and bioluminescence was determined using a FLUOstar OPTIMA multi-mode micro-plate reader (BMG LABTECH). Bioluminescence values were normalized to DMSO treated cells, and normalized values were plotted in GraphPad Prism using non-linear regression fit to normalized data with a variable slope. IC50 values were calculated by GraphPad Prism at 50% inhibition.
Human Cell lines: MCF10A cells were purchased from ATCC and were cultured in DMEM/F12 media supplemented with 1% penicillin/streptomycin, 5% horse serum (sigma), 20 ng/ml EGF, […] hydrocortisone, and 10 μg/ml insulin. Stable cell lines were created by retroviral transduction, and retroviruses were generated by transfecting pBabe-Puro based vectors summarized in Table 1 (Addgene and Bioinnovatise) into Phoenix 293T-ampho cells (Orbigen) using Lipofectamine 2000 (Invitrogen). […]

[3] = test system: cell surface HER2 on MCF10A cells expressing HER2 mutations; assay: FACS of cell surface HER2 expression; assay type: cell-based, human; details: 10 nM, 24 hours, average of MCF10A HER2 mutant lines
Experimental: FACS: MCF10A cells overexpressing HER2 mutations were plated overnight in a 6-well plate, then treated with 10 nM poziotinib. After 24 hours, cells were washed twice with PBS, and trypsinized. Cells were then resuspended in 0.5% FBS in PBS, and stained with anti-HER2-FITC antibody from Biolegend (#324404) for 45 minutes on ice. Cells were washed with 0.5% FBS in PBS twice, and analyzed by flow cytometry. IgG and unstained controls were used for gating.

Compound: C=CC(=O)N1CCC(Oc2cc3c(Nc4ccc(Cl)c(Cl)c4F)ncnc3cc2OC)CC1 [poziotinib, 1-[4-[4-(3,4-dichloro-2-fluoroanilino)-7-methoxyquinazolin-6-yl]oxypiperidin-1-yl]prop-2-en-1-one]
- inhibition of p-HER2 [1]: completely inhibits
- pIC50 [2]: 7.92
- increase of cell surface HER2 expression [3]: 2 fold
